Test results reported in ChEMBL document CHEMBL4330153, “In Vivo Anti-inflammatory and Antiallergic Activity of Pure Naringenin, Naringenin Chalcone, and Quercetin in Mice” (2019).
Active and inactive are the calls of the source. No cut-off for these calls is given here.

Legend:
Mus musculus [1] = test: Antiallergic activity in CD-1 mouse model of IgE/DNP-BSA-stimulated passive cutaneous anaphylaxis assessed as inhibition of vascular permeability at 5% administered topically immediately after sensitization by Evans blue extravasation assay; type: functional, organism-based
Mus musculus [2] = test: Antiallergic activity in CD-1 mouse model of IgE/DNP-BSA-stimulated passive cutaneous anaphylaxis assessed as inhibition of vascular permeability at 0.1% administered topically immediately after sensitization by Evans blue extravasation assay; type: functional, organism-based
Mus musculus [3] = test: Antiallergic activity in CD-1 mouse model of IgE/DNP-BSA-stimulated passive cutaneous anaphylaxis assessed as inhibition of vascular permeability at 1% administered topically immediately after sensitization by Evans blue extravasation assay relative to control; type: functional, organism-based
Mus musculus [4] = test: (§1) Anti-inflammatory activity in arachidonic acid-induced CD-1 mouse ear edema model assessed as inhibition of ear edema thickness at 1% administered topically immediately after arachidonic acid treatment and measured 1 hr post arachidonic acid treatment relative to control; type: functional
Mus musculus [5] = test: as §1, with “tetradecanoylphorbol-13-acetate-induced” for “arachidonic acid-induced”, “tetradecanoylphorbol-13-acetate” for “arachidonic acid”, “4 hrs” for “1 hr”; type: functional
Mus musculus [6] = test: Antiallergic activity in CD-1 mouse model of IgE/DNP-BSA-stimulated passive cutaneous anaphylaxis assessed as inhibition of vascular permeability at 0.2%, iv administered immediately after sensitization by Evans blue extravasation assay; type: functional, organism-based
Mus musculus [7] = test: Antiallergic activity in CD-1 mouse model of IgE/DNP-BSA-stimulated passive cutaneous anaphylaxis assessed as inhibition of vascular permeability at 2% administered topically immediately after sensitization by Evans blue extravasation assay relative to control; type: functional
Mus musculus [8] = test: Antiallergic activity in CD-1 mouse model of IgE/DNP-BSA-stimulated passive cutaneous anaphylaxis assessed as inhibition of vascular permeability at 4% administered topically as oil-in-water emulsion immediately after sensitization by Evans blue extravasation assay relative to control; type: functional, organism-based
Mus musculus [9] = test: Anti-inflammatory activity in arachidonic acid-induced CD-1 mouse ear edema model assessed as inhibition of ear edema thickness at 2% administered topically immediately after arachidonic acid treatment and measured 1 hr post arachidonic acid treatment relative to control; type: functional
Mus musculus [10] = test: Antiallergic activity in CD-1 mouse model of IgE/DNP-BSA-stimulated passive cutaneous anaphylaxis assessed as inhibition of vascular permeability at 0.02%, iv administered immediately after sensitization by Evans blue extravasation assay relative to control; type: functional
Mus musculus [11] = test: Antiallergic activity in mouse model of picryl-chloride-induced […] allergy at 0.8 mg/kg, po for 5 days relative to control; type: functional
Mus musculus [12] = test: Anti-inflammatory activity in arachidonic acid-induced CD-1 mouse ear edema model assessed as inhibition of ear edema thickness administered topically immediately after arachidonic acid treatment and measured 1 hr post arachidonic acid treatment; type: functional, organism-based
Mus musculus [13] = test: Anti-inflammatory activity in tetradecanoylphorbol-13-acetate-induced CD-1 mouse ear edema model assessed as inhibition of ear edema thickness administered topically immediately after tetradecanoylphorbol-13-acetate treatment and measured 4 hrs post tetradecanoylphorbol-13-acetate treatment; type: functional, organism-based
Mus musculus [14] = test: (§2) Anti-inflammatory activity in tetradecanoylphorbol-13-acetate-induced CD-1 mouse ear edema model assessed as inhibition of ear edema thickness at 0.5% administered topically immediately after tetradecanoylphorbol-13-acetate treatment and measured 4 hrs post tetradecanoylphorbol-13-acetate treatment relative to control; type: functional
Mus musculus [15] = test: as §2, with “2%” for “0.5%”; type: functional
Mus musculus [16] = test: Antiallergic activity in mouse model of IgE/DNP-BSA-stimulated passive cutaneous anaphylaxis at 5 mg/kg, ip administered as single dose relative to control; type: functional
Mus musculus [17] = test: Anti-inflammatory activity in arachidonic acid-induced CD-1 mouse ear edema model assessed as inhibition of ear edema thickness at 1.3% administered topically immediately after arachidonic acid treatment and measured 1 hr post arachidonic acid treatment; type: functional, organism-based
Mus musculus [18] = test: Anti-inflammatory activity in tetradecanoylphorbol-13-acetate-induced CD-1 mouse ear edema model assessed as inhibition of ear edema thickness at 1.3% administered topically immediately after tetradecanoylphorbol-13-acetate treatment and measured 4 hrs post tetradecanoylphorbol-13-acetate treatment; type: functional, organism-based

CC(c1cc2ccccc2s1)N(O)C(N)=O (centres undefined)
inhibition (Mus musculus [1]): Active

CCC(=O)O[C@]1(C(=O)COC(C)=O)CC[C@H]2[C@@H]3C[C@H](C)C4=CC(=O)C=C[C@]4(C)[C@H]3[C@@H](O)C[C@@]21C
inhibition (Mus musculus [2]): Active

CN(C)CCC(c1ccc(Cl)cc1)c1ccccn1 (centres undefined)
inhibition (Mus musculus [3]): Active

O=C(O)Cc1ccccc1Nc1c(Cl)cccc1Cl
inhibition (Mus musculus [4]): Active | inhibition (Mus musculus [5]): Active

O=C(O)c1cc(=O)c2c(OCC(O)COc3cccc4oc(C(=O)O)cc(=O)c34)cccc2o1
inhibition (Mus musculus [6]): Active | inhibition (Mus musculus [7]): inactive | inhibition (Mus musculus [8]): inactive

O=C(/C=C/c1ccc(O)cc1)c1c(O)cc(O)cc1O [4,2',4',6'-TETRAHYDROXYCHALCONE]
inhibition (INH) (Mus musculus [9]): 42% | inhibition (INH) (Mus musculus [5]): 27% | inhibition (INH) (Mus musculus [10]): 68% | Activity (Mus musculus [11]): 47% | inhibition (INH) (Mus musculus [7]): 55%

O=C1C[C@@H](c2ccc(O)cc2)Oc2cc(O)cc(O)c21 [NARINGENIN]
inhibition (Mus musculus [12]): Dose-dependent effect | inhibition (Mus musculus [13]): Dose-dependent effect | inhibition (INH) (Mus musculus [4]): 22% | inhibition (INH) (Mus musculus [9]): 56% | inhibition (INH) (Mus musculus [14]): 32% | inhibition (INH) (Mus musculus [5]): 56% | inhibition (INH) (Mus musculus [15]): 62% | inhibition (INH) (Mus musculus [10]): 56% | Activity (Mus musculus [11]): 15% | Activity (Mus musculus [16]): 70% | inhibition (INH) (Mus musculus [7]): 42%

O=c1c(O)c(-c2ccc(O)c(O)c2)oc2cc(O)cc(O)c12 [QUERCETIN]
inhibition (Mus musculus [17]): inactive | inhibition (Mus musculus [18]): Active | inhibition (INH) (Mus musculus [10]): 80% | Activity (Mus musculus [11]): 15% | inhibition (INH) (Mus musculus [7]): 34%
